Earlier results in patent publication US4220642A, “Vasoactive lung polypeptides” (priority 1978, dated 1980).

Legend:
[1] = tested on: guinea pig trachea, ileum, gallbladder, pulmonary artery, "lung"; settings: trachea (F2 α)
[2] = tested on: rat stomach strip, rat colon; settings: rat stomach strip and colon

Q: Which results are given for `CCCCC[C@H](O)/C=C/[C@H]1[C@H](O)CC(=O)[C@@H]1CCCCCCC(=O)O` [Prostaglandin E1]?
A: contraction of guinea pig smooth-muscle organs by prostaglandins [1]: contract; contraction of rat smooth-muscle organs by prostaglandins [2]: contract; contraction of chick rectum by prostaglandins (chick rectum): contract

Q: For `CCCCC[C@H](O)/C=C/[C@H]1[C@H](O)CC(=O)[C@@H]1C/C=C\CCCC(=O)O` [Prostaglandin E2], which “contraction of guinea pig smooth-muscle organs by prostaglandins” value [1] is on record?
A: contract

Q: And the “contraction of rat smooth-muscle organs by prostaglandins” value [2]?
A: contract

Q: And the “contraction of chick rectum by prostaglandins” value (chick rectum)?
A: contract

Q: For Prostaglandin F2 α, which “contraction of guinea pig smooth-muscle organs by prostaglandins” value [1] is on record?
A: contracts

Q: And the “contraction of rat smooth-muscle organs by prostaglandins” value [2]?
A: contracting

Q: And the “contraction of chick rectum by prostaglandins” value (chick rectum)?
A: contracting
